According to US7799343B2, “Safer control of broadleaf weeds in turf with granular formulations of ALS inhibiting herbicides” (priority 2006, dated 2010):

Assays:
Format in all cases: in vivo
[1] = test system: buckhorn plantain, Plantago lanceolata L. (PLALA); experiment: Postemergent weed control field study, Pennsylvania 2004, PLALA; settings: g ai/Ha: penoxsulam 35, imazaquin 104, bispyribac-sodium 75, trifloxysulfuron-sodium 9.2, metsulfuron-methyl 10.4; for Percent Weed Control PLALA 29DAA: 29 Days After Application; for Percent Weed Control PLALA 56DAA: 56 Days After Application
Text: (§1) The ALS inhibiting herbicides are useful in controlling broadleaf weeds and sedges in turfgrass. They are particularly effective against most important weeds in this application, viz., white clover, Trifolium repens L. (TRFRE); buckhorn plantain, Plantago lanceolata L. (PLALA); dandelion, Taraxacum officinale (TAROF); broadleaf plantain, Plantago major L. (PLAMA); ground ivy, Glechoma hederacea L. (GLEHE); common lespedeza, Lespedeza striata (LESST); pennywort (dollarweed), Hydrocotyle spp (HYDSS); Virginia buttonweed, Diodia virginiana L. (DIQVI) English daisy, Bellis perennis L. (BELPE); annual bluegrass, Poa annua (POANN); and yellow nutsedge, Cypres esculentus L. (CYPES).
(§2) Field studies were conducted in established turfgrass sites containing a natural population of target broadleaf weeds. Replicated trials, containing a minimum of three replications and having individual plots ranging in size from 25 to 50 ft. sq (2.3 to 4.6 square meters), were initiated in the late spring when turf and weeds were actively growing. […] Applications were made in the early morning when dew was present. Natural rainfall and supplemental irrigation were used to maintain healthy turf and active weed growth throughout the study period. Control of each weed species in the study site was made at approximately 2, 4 and 8 weeks after treatment. Control was determined visually by comparing treated and untreated weeds and scored on a 0 to 100 percent scale where 0 corresponds to no control and 100 corresponds to complete kill.

[2] = test system: tall fescue; experiment: Turf tolerance field study, tall fescue, Indiana 2004; settings: 14 Days After Treatment, g ai/Ha: penoxsulam 35, imazaquin 104, bispyribac-sodium 75, trifloxysulfuron-sodium 9.2, metsulfuron-methyl 10.4; for Color: 0 = brown to dead turf, 10 = lush green; for Injury: 0 = no visible injury, 10 = dead turf
Method: (§3) Turf tolerance studies were conducted in monoculture stands of perennial ryegrass and tall fescue. Replicated trials, containing a minimum of three replications and having individual plots ranging in size from 25 to 50 ft. sq (2.3 to 4.6 square meters), were initiated in the late spring when turf was actively growing. […] Natural rainfall and supplemental irrigation, fertilizer, fungicides and insecticides were used to maintain healthy turf throughout the study period. Turf tolerance evaluations were made weekly for 8 weeks after application. Evaluations compared treated and untreated plot areas and consisted of one or all of the following evaluations: 1) visual estimate of turf injury made on a 0 to 10 scale with 0 indicating no visible injury symptoms, 10 being dead turf and 3 or less being commercially acceptable; 2) visual estimate of turf color made on a 0 to 10 scale with 0 being brown to dead turf, 10 being a lush green turf of highest quality and 6.5 being commercially acceptable; 3) visual estimate of turf density made on a 0 to 100 scale with 0 being bare ground, 100 being a thick solid stand of highest quality and 90 percent density being commercially acceptable; 4) visual estimate of turf quality made on a 0 to 10 scale with 0 being brown to dead turf, 10 being a lush green turf of highest quality and 6.5 being commercially acceptable.

[3] = test system: dandelion, Taraxacum officinale (TAROF); experiment: Postemergent weed control field study, Pennsylvania 2004, TAROF; settings: Granule formulation, g ai/Ha: penoxsulam 35, imazaquin 104, bispyribac-sodium 75, trifloxysulfuron-sodium 9.2, metsulfuron-methyl 10.4; for Percent Weed Control TAROF 29DAA: 29 Days After Application; for Percent Weed Control TAROF 56DAA: 56 Days After Application
Text: as §1
(§4) Field studies were conducted in established turfgrass sites containing a natural population of target broadleaf weeds. Replicated trials, containing a minimum of three replications and having individual plots ranging in size from 25 to 50 ft. sq (2.3 to 4.6 square meters), were initiated in the late spring when turf and weeds were actively growing. Granule treatments were uniformly applied to individual plots using a common hand-shaker method. Applications were made in the early morning when dew was present. Natural rainfall and supplemental irrigation were used to maintain healthy turf and active weed growth throughout the study period. Control of each weed species in the study site was made at approximately 2, 4 and 8 weeks after treatment. Control was determined visually by comparing treated and untreated weeds and scored on a 0 to 100 percent scale where 0 corresponds to no control and 100 corresponds to complete kill.

[4] = test system: white clover, Trifolium repens L. (TRFRE); experiment: Postemergent weed control field study, Pennsylvania 2004, TRFRE; settings: g ai/Ha: penoxsulam 35, imazaquin 104, bispyribac-sodium 75, trifloxysulfuron-sodium 9.2, metsulfuron-methyl 10.4; for Percent Weed Control TRFRE 29DAA: 29 Days After Application; for Percent Weed Control TRFRE 56DAA: 56 Days After Application
Text: as §1, §2

[5] = test system: perennial ryegrass; experiment: Turf tolerance field study, perennial ryegrass, Indiana 2004; settings: 21 Days After Treatment, g ai/Ha: penoxsulam 35, imazaquin 104, bispyribac-sodium 75, trifloxysulfuron-sodium 9.2, metsulfuron-methyl 10.4; for Color: 0 = brown to dead turf, 10 = lush green; for Injury: 0 = no visible injury, 10 = dead turf
Method: as §3

[6] = test system: dandelion, Taraxacum officinale (TAROF); experiment: Postemergent weed control field study, Pennsylvania 2004, TAROF; settings: Liquid formulation, g ai/Ha: penoxsulam 35, imazaquin 104, bispyribac-sodium 75, trifloxysulfuron-sodium 9.2, metsulfuron-methyl 10.4; for Percent Weed Control TAROF 29DAA: 29 Days After Application; for Percent Weed Control TAROF 56DAA: 56 Days After Application
[7] = test system: annual bluegrass, Poa annua (POANN); experiment: Postemergent weed control field study, Pennsylvania 2004, POANN; settings: g ai/Ha: penoxsulam 35, imazaquin 104, bispyribac-sodium 75, trifloxysulfuron-sodium 9.2, metsulfuron-methyl 10.4; for Percent Weed Control POANN 29DAA: 29 Days After Application; for Percent Weed Control POANN 56DAA: 56 Days After Application
Text: as §1, §4

[8] = test system: perennial ryegrass; experiment: Perennial ryegrass turf quality field study, Pennsylvania 2004; settings: in vivo
Method: as §3

Compound	Percent Weed Control PLALA 29DAA ([1]; Granule formulation) [%]	Percent Weed Control PLALA 56DAA ([1]; Granule formulation) [%]	Percent Weed Control PLALA 29DAA ([1]; Liquid formulation) [%]	Percent Weed Control PLALA 56DAA ([1]; Liquid formulation) [%]	Color ([2]; Granule formulation)	Injury ([2]; Granule formulation)	Color ([2]; Liquid formulation)	Injury ([2]; Liquid formulation)	Percent Weed Control TAROF 29DAA [3] [%]	Percent Weed Control TAROF 56DAA [3] [%]	Percent Weed Control TRFRE 29DAA ([4]; Granule formulation) [%]	Percent Weed Control TRFRE 56DAA ([4]; Granule formulation) [%]	Percent Weed Control TRFRE 29DAA ([4]; Liquid formulation) [%]	Percent Weed Control TRFRE 56DAA ([4]; Liquid formulation) [%]	Color ([5]; Granule formulation)	Injury ([5]; Granule formulation)	Color ([5]; Liquid formulation)	Injury ([5]; Liquid formulation)	Percent Weed Control TAROF 29DAA [6] [%]	Percent Weed Control TAROF 56DAA [6] [%]	other results
COC(=O)c1ccccc1S(=O)(=O)NC(=O)Nc1nc(C)nc(OC)n1 [Metsulfuron-methyl, metsulfuron-methyl]	58.3	85.0	97.7	78.9	8.8 0-10 Scale	0.8 0-10 Scale	6.8 0-10 Scale	4.3 0-10 Scale	87.2	67.2	93.9	93.9	95.8	100.0	6.5 0-10 Scale	4.5 0-10 Scale	6.0 0-10 Scale	6.0 0-10 Scale	99.1	97.4	Percent Weed Control POANN 29DAA ([7]; Granule formulation): 32.2%; Percent Weed Control POANN 56DAA ([7]; Granule formulation): 31.1%; Percent Weed Control POANN 29DAA ([7]; Liquid formulation): 39.2%; Percent Weed Control POANN 56DAA ([7]; Liquid formulation): 17.5%; Turf Quality 36 DAA [8]: 8.3 0 to 10 scale
COc1cnc(OC)n2nc(NS(=O)(=O)c3c(OCC(F)F)cccc3C(F)(F)F)nc12 [Penoxsulam, penoxsulam]	73.3	43.3	41.7	70.6	9.0 0-10 Scale	0.3 0-10 Scale	7.8 0-10 Scale	3.0 0-10 Scale	57.8	34.4	98.3	83.9	100.0	98.7	8.3 0-10 Scale	1.5 0-10 Scale	6.5 0-10 Scale	4.3 0-10 Scale	44.4	11.1	Percent Weed Control POANN 29DAA ([7]; Granule formulation): 0.0%; Percent Weed Control POANN 56DAA ([7]; Granule formulation): 13.7%; Percent Weed Control POANN 29DAA ([7]; Liquid formulation): 4.4%; Percent Weed Control POANN 56DAA ([7]; Liquid formulation): 31.1%; Turf Quality 36 DAA [8]: 10.0 0 to 10 scale
